Among the test systems are A498 renal; A549 NSCLC; CCRF-CEM leukemia; EKVX NSCLC; HOP-62 NSCLC; HOP-92 NSCLC; IGROV1 ovarian; MDA-MB-231 breast; NCI-H522 lung; SNB-19 CNS.
Assay in all cases: inhibition of tumour cell growth, NCI panel, 48 h

Several values for one entry are separate records, joined by “and”; a condition that tells them apart may be missing. Identical values can stand only once.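 Cultured in 96-well plates, cells were exposed to test compound for 48 hours across five concentrations. Abbreviation: GI50, concentration required for 50% inhibition of growth. Definition used: TGI = concentration required for complete inhibition of growth.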

In the case of `CS(=O)(=O)c1nccc(-c2c(-c3cccc(OCc4ccc(F)cc4)c3)nc3sccn23)n1`, the GI50 with A498 renal was 18.2 µM; in the experiment with A549 NSCLC, more than 81.8 µM; with CCRF-CEM leukemia, 8.73 µM; with EKVX NSCLC it was 26.4 µM; in the experiment with HOP-62 NSCLC, 57.2 µM; in the experiment on HOP-92 NSCLC, 11.1 µM. The GI50 is 11.2 µM with IGROV1 ovarian, 34.3 µM in the experiment on MDA-MB-231 breast, 8.15 µM with NCI-H522 lung and 26 µM in the experiment on SNB-19 CNS. In addition, the TGI in the experiment on A498 renal is 65.2 µM; in the experiment on A549 NSCLC, more than 100 µM; with CCRF-CEM leukemia, more than 100 µM; with EKVX NSCLC it was more than 100 µM; in the experiment with HOP-62 NSCLC, more than 100 µM; with HOP-92 NSCLC, more than 100 µM. In addition, the TGI in the experiment with IGROV1 ovarian was more than 100 µM; in the experiment with MDA-MB-231 breast it was more than 100 µM; with NCI-H522 lung it was more than 100 µM; with SNB-19 CNS, more than 96.7 µM.

Turning to `COC1/C=C/O[C@@]2(C)Oc3c(C)c(O)c4c(O)c(cc(O)c4c3C2=O)NC(=O)/C(C)=C\C=C\[C@H](C)C(O)[C@@H](C)[C@@H](O)[C@@H](C)[C@H](OC(C)=O)[C@@H]1C` (stereo partly drawn), the TGI with A498 renal was 96.9 µM; in the experiment with A549 NSCLC, 31.3 µM and 143 µM; in the experiment on CCRF-CEM leukemia it was 4.07 µM and 32.6 µM; with EKVX NSCLC, 27.8 µM and 136 µM; with HOP-62 NSCLC, 32.8 µM and 237 µM; with HOP-92 NSCLC, 24.3 µM and 23.6 µM. In addition, the TGI was 29.5 µM and 56.3 µM in the experiment with IGROV1 ovarian; 27.2 µM and 56.2 µM in the experiment on MDA-MB-231 breast; 11.2 µM and 20.5 µM with NCI-H522 lung; 220 µM in the experiment on SNB-19 CNS. The GI50 in the experiment with A549 NSCLC is 16.8 µM and 58.5 µM; in the experiment with CCRF-CEM leukemia, 0.504 µM; in the experiment on EKVX NSCLC it was 14.2 µM and 58.6 µM; with HOP-62 NSCLC it was 18.8 µM; with HOP-92 NSCLC, 12 µM; in the experiment on IGROV1 ovarian, 16 µM. Further, the GI50 with MDA-MB-231 breast was 14.2 µM; in the experiment on NCI-H522 lung it was 2.72 µM; with SNB-19 CNS, 51.8 µM.

On to `CCC(=O)Sc1ccccc1C(=O)Nc1ccc(Cl)cc1`, for which the GI50 in the experiment on A498 renal was 9.19 µM; with A549 NSCLC, 11.7 µM; in the experiment with CCRF-CEM leukemia, 4.22 µM; in the experiment with EKVX NSCLC, 7.16 µM; with HOP-62 NSCLC, 12.5 µM; in the experiment on HOP-92 NSCLC, 2.52 µM. In addition, the GI50 in the experiment with IGROV1 ovarian is 13.7 µM; with MDA-MB-231 breast, 11.2 µM; in the experiment on NCI-H522 lung it was 6.21 µM; in the experiment with SNB-19 CNS, 16.6 µM. Besides, the TGI is 38.5 µM with A498 renal; more than 100 µM with A549 NSCLC; more than 100 µM with CCRF-CEM leukemia; 75.2 µM in the experiment on EKVX NSCLC; 34.2 µM with HOP-62 NSCLC; 9.67 µM in the experiment with HOP-92 NSCLC. Further, the TGI with IGROV1 ovarian is more than 100 µM; in the experiment on MDA-MB-231 breast, 45.7 µM; in the experiment on NCI-H522 lung, 27.1 µM; in the experiment on SNB-19 CNS, 68.8 µM.

In the case of `Cc1nc2sc(C(=O)Nc3cccc4ccccc34)c(N)c2cc1C(C)O` (stereo not drawn), the GI50 in the experiment with A498 renal was 0.0756 µM; in the experiment on A549 NSCLC it was 0.345 µM; in the experiment with CCRF-CEM leukemia, 0.21 µM; in the experiment on EKVX NSCLC it was 0.446 µM; in the experiment on HOP-62 NSCLC it was 0.244 µM; in the experiment with HOP-92 NSCLC it was 1.03 µM. The GI50 with IGROV1 ovarian was 0.308 µM; in the experiment with MDA-MB-231 breast, 0.751 µM; in the experiment on NCI-H522 lung it was 0.207 µM; with SNB-19 CNS, 0.244 µM. Further, the TGI with A498 renal was 1.02 µM; in the experiment on A549 NSCLC it was more than 50 µM; in the experiment with CCRF-CEM leukemia it was more than 50 µM; with EKVX NSCLC it was more than 50 µM; in the experiment on HOP-62 NSCLC, more than 50 µM; in the experiment on HOP-92 NSCLC, more than 47 µM. Besides, the TGI in the experiment on IGROV1 ovarian is more than 50 µM; in the experiment on MDA-MB-231 breast, more than 50 µM; in the experiment with NCI-H522 lung, more than 22.4 µM; in the experiment on SNB-19 CNS, more than 50 µM.

In the case of `Cn1cc(-c2cc3c(Nc4ccc(CC(=O)Nc5cc(C(C)(C)C)on5)cc4)ncnc3[nH]2)cn1`, the GI50 in the experiment on A498 renal is 0.692 µM and 1.07 µM; with A549 NSCLC, 2.42 µM and 2.84 µM; in the experiment with CCRF-CEM leukemia, 0.395 µM and 0.302 µM; with EKVX NSCLC, 1.66 µM and 1.81 µM; in the experiment with HOP-62 NSCLC it was 0.876 µM and 0.444 µM; with HOP-92 NSCLC, 1.42 µM and 0.536 µM. Further, the GI50 is 1.1 µM and 0.948 µM in the experiment with IGROV1 ovarian; 0.797 µM and 0.786 µM in the experiment with MDA-MB-231 breast; 0.469 µM and 0.528 µM with NCI-H522 lung; 0.492 µM and 0.399 µM in the experiment with SNB-19 CNS. Moreover, the TGI in the experiment with A498 renal is 1.81 µM and 3.03 µM; in the experiment with A549 NSCLC, 8.76 µM and 10.5 µM; in the experiment on EKVX NSCLC, 5.01 µM and 5.31 µM; in the experiment with HOP-62 NSCLC, 4.97 µM and 4.58 µM; with HOP-92 NSCLC it was 11.8 µM and 4.39 µM; in the experiment with IGROV1 ovarian, 5.84 µM and 5.24 µM. Also, the TGI in the experiment on MDA-MB-231 breast was 5.17 µM and 8.35 µM; with NCI-H522 lung, 3.33 µM and 4.48 µM; in the experiment on SNB-19 CNS it was 5.31 µM and 8.4 µM.

In the case of `Cn1ncc2cc(-c3cnc(N)c(Cl)c3N3CCC4(CCNC4=O)CC3)ccc21`, the GI50 was 11.2 µM in the experiment on A498 renal; more than 100 µM in the experiment with A549 NSCLC; 36.9 µM in the experiment with CCRF-CEM leukemia; 12.9 µM in the experiment with EKVX NSCLC; 21.6 µM in the experiment with HOP-62 NSCLC; 13 µM in the experiment with HOP-92 NSCLC. For the same molecule, the GI50 in the experiment on IGROV1 ovarian was 14.8 µM; with MDA-MB-231 breast, 23 µM; with NCI-H522 lung it was 60.7 µM; in the experiment on SNB-19 CNS, 94.2 µM. Moreover, the TGI was 32.4 µM in the experiment on A498 renal; more than 100 µM with A549 NSCLC; more than 100 µM with CCRF-CEM leukemia; more than 100 µM in the experiment on EKVX NSCLC; more than 100 µM with HOP-62 NSCLC; 82.4 µM in the experiment on HOP-92 NSCLC. Moreover, the TGI in the experiment on IGROV1 ovarian is more than 100 µM; in the experiment on MDA-MB-231 breast it was 86.3 µM; in the experiment with NCI-H522 lung, more than 100 µM; in the experiment on SNB-19 CNS it was more than 100 µM.

`COc1ccc(C(CC(=O)c2ccccc2)C(C(=O)c2ccccc2)C(c2ccc(OC)cc2)C2C(=O)NC(=O)NC2=O)cc1` (stereo not drawn): the GI50 in the experiment with A498 renal was 11 µM; in the experiment on A549 NSCLC it was 15.9 µM; with CCRF-CEM leukemia, 12.9 µM; with EKVX NSCLC it was 12.5 µM; in the experiment with HOP-62 NSCLC, 26.3 µM; in the experiment with HOP-92 NSCLC, 2.3 µM. The GI50 in the experiment on IGROV1 ovarian is 13.2 µM; in the experiment with MDA-MB-231 breast it was 2.24 µM; with NCI-H522 lung it was 16.2 µM; in the experiment with SNB-19 CNS it was 13.7 µM. Also, the TGI in the experiment with A498 renal is 43.5 µM; with A549 NSCLC, more than 100 µM; in the experiment on CCRF-CEM leukemia, more than 100 µM; in the experiment on EKVX NSCLC it was more than 100 µM; with HOP-62 NSCLC it was 66.6 µM; in the experiment on HOP-92 NSCLC, 50.2 µM. The TGI in the experiment with IGROV1 ovarian is more than 100 µM; in the experiment on MDA-MB-231 breast, 16.2 µM; in the experiment on NCI-H522 lung it was 72.6 µM; with SNB-19 CNS, more than 100 µM.

The values above are taken from PubChem BioAssay (NCI).
